Among the data in ChEMBL document CHEMBL1157539, “Thousands of chemical starting points for antimalarial lead identification” (Nature, 2010) are XC50 values, retold here.

In this test the test system is Plasmodium falciparum. Nature of the test: GSK_TCMDC: Inhibition of Plasmodium falciparum 3D7 in whole erythrocytes, using parasite LDH activity as an index of growth. Particulars: Plasmodium falciparum, 3D7. In kind it is functional, organism-based.
As for `CN(C)CCCNc1c2ccccc2nc2ccccc12`, the XC50 worked out at 1.04 µM.
The result for `O=C(Cn1c(CCc2cccc(F)c2F)cc(=O)c2ccccc21)N(Cc1ccc(-c2ccc(C(F)(F)F)cc2)cc1)C1CCN(CCN2CCOCC2)CC1` reads 0.72 µM; that for `CCC(=O)Oc1ccc(NC(=O)c2cccc(OC)c2)cc1`, 0.771 µM; that for `O=C(Nc1cccc(-c2nn3ncccc3c2-c2ccnc(Nc3ccc(N4CCOCC4)cc3)n2)c1)c1c(F)cccc1F`, 0.158 µM.
The result for `Cc1cccc2nc(-c3ccc(-c4cccc(CNCc5ccc(S(C)(=O)=O)cc5)c4)s3)[nH]c12` reads 0.334 µM; that for `COc1ccc2nccc([C@@H](O)CN3CCC(NCCOc4ccc(F)cc4Cl)CC3)c2c1`, 0.276 µM; that for `O=C(CCC1CCCC1)N(Cc1ccc(-c2ccc(CNCCc3ccccc3)cc2)cc1)C1CCCNC1` (configuration not stated), 1.22 µM.
For `COc1ccc2c(NN=CC=Cc3ccccc3)ccnc2c1` the value was 0.77 µM; for `CC(C)Sc1ccc(Cl)cc1CON1C(=N)N=C(N)NC1(C)C`, 0.0032 µM; for `CCC(=O)c1cc(C(=O)NCCc2cccc(OC)c2)ccc1OC`, 0.902 µM.
Molecule `CC(C)Cc1ccc(N2CCN(CCCCNC(=O)c3ccc(NC(=O)c4ccc(Cl)c(Cl)c4)cc3)CC2)cc1` returned an XC50 of 1.2 µM.
For `CCOC(=O)NCC(=O)Nc1cccc(-c2cccc(-c3nc4cc(C(F)(F)F)ccc4[nH]3)c2)c1` the value was 0.626 µM; for `CCOCc1cn(CC(=O)c2ccc(-c3ccccc3)cc2)c(C)nc1=N`, 0.319 µM.
The result for `CCn1c(-c2nonc2N)nc2c(-c3cccc(NC(=O)Nc4ccc(C#N)cc4)c3)ncc(OCCCN)c21` reads 1.51 µM; that for `FC(F)(F)c1ccc2[nH]c(-c3ccc(-c4cccc(CN5CCC(CCN6CCCCC6)CC5)c4)cc3)nc2c1`, 0.153 µM.
Molecule `O=c1[nH]ccc2nc(N[C@@H]3CCNC3)nc(Nc3cccc(S(=O)(=O)N4CCOCC4)c3)c12` came in with an XC50 of 1.23 µM.
The result for `CC(C)N1CCN(C(CN2CCN(CCCOc3ccc4ccccc4c3)CC2)c2ccc(F)cc2)CC1` (configuration not stated) reads 0.581 µM; that for `CCCCCc1cc(O)c2c(c1)OC(C)(C)C=C2C1=CCN(Cc2ccsc2)CC1`, 0.964 µM.
For `COc1ccc(C(=C(C)CC(C)C(=O)O)c2ccccc2)cc1` (configuration not stated) the value was 0.845 µM; for `COc1ccc(NC(=O)Nc2nc(-c3ccc(Cl)c(C)c3)cs2)cc1N1CCN(C)CC1`, 0.266 µM; for `CN(C)CCCNc1nccc(N(C)c2ccc(NC(=O)Nc3cc(C(F)(F)F)ccc3F)cc2)n1`, 0.98 µM.
In turn, `C#CCCC(=O)Nc1cccc(-c2cccc(-c3nc4cccc(C)c4[nH]3)c2)c1` registered an XC50 of 0.736 µM.
The result for `COc1cc(CCCON2C(=N)N=C(N)NC2(C)C)cc(OC)c1OC` reads 0.0391 µM; that for `Cc1nc(N)nc(N)c1OCc1cccc2c1ccc1ccccc12`, 0.0988 µM.
For `O=C(Nc1ccc2c(c1)CCNCC2)Nc1ccc2ccccc2c1` the value was 0.622 µM; for `COC(=O)Cn1c2ccccc2c2c(N)c(C(=O)OC)c(C)nc21`, 0.938 µM; for `Cc1cc(NC(=O)c2coc3cc(F)c(N4CC(C)N(C)C(C)C4)cc23)cnc1-c1ccc(C#N)cc1` (configuration not stated), 0.695 µM.
For `COc1ccc2c(O)c(C3CCC(c4ccc(Cl)cc4)CC3)c(C)nc2c1` (configuration not stated) the value was 0.647 µM; for `O=C(c1cc2cccc([N+](=O)[O-])c2[nH]1)N1CCC(CCN2CCC(c3c[nH]c4ccccc34)CC2)CC1`, 0.943 µM.
The molecule `COc1ccc2nccc([C@@H](O)CN3CCC(NS(=O)(=O)c4cc5c(cc4Cl)SCC(=O)N5)CC3)c2c1` displayed an XC50 of 0.982 µM.
For `c1ccc(-c2nc(Nc3nc4ccccc4[nH]3)[nH]c2-c2ccccc2)cc1` the value was 0.619 µM; for `NC(=O)CCC(NC(=O)CNC(=O)Nc1cccc(C(F)(F)F)c1)C(=O)O` (configuration not stated), 0.803 µM; for `COc1cc2nc(C)nc(Nc3ccc(Cc4ccccc4)cc3)c2cc1OC`, 0.73 µM.
For `COc1ccc(C2CC(=O)C3=C(C2)NC(C)=C(C(=O)OC2CCCC2)C3c2ccc(O)cc2)cc1OC` (configuration not stated) the value was 0.565 µM; for `Nc1ccc(Nc2ccnc3ccc(C(F)(F)F)cc23)cc1O`, 0.716 µM; for `CS(=O)(=O)NCCCNCc1ccc(-c2ccc(-c3nc4cc(C(F)(F)F)ccc4[nH]3)cc2)cc1`, 0.457 µM.
The result for `O=C(NC1CCC(CCN2CCc3ccc(-c4cnccn4)cc3CC2)CC1)c1cccc(-n2cccn2)c1` (configuration not stated) reads 0.899 µM; that for `NCCCNc1nccc(N2CCc3ncnc(Nc4ccc(OCc5cccc(F)c5)c(Cl)c4)c3C2)n1`, 0.832 µM; that for `CCOc1ccc2c(=NN=Cc3ccc(F)cc3)cc(C)[nH]c2c1`, 0.584 µM.
Molecule `Nc1c(Cl)cc(C(O)CNCCCCCCOCCc2ccc(CO)s2)cc1Cl` (configuration not stated) displayed an XC50 of 1.05 µM.
The result for `CC(=O)N(Cc1ccc(-c2ccc(CNCCc3ccccc3)cc2)cc1)C1CCN(Cc2ccccc2)CC1` reads 0.939 µM; that for `CCN(CC)CCNc1ccnc2ccc3ccccc3c12`, 0.219 µM.
For `CS(=O)(=O)c1ccc(CNCc2ccc(-c3cccc(-c4nc5ccccc5[nH]4)c3)cc2)cc1` the value was 0.326 µM.
For `CC(C)CCOc1ccc(NC(=O)c2cccs2)cc1` the value was 0.514 µM; for `Nc1ncc(Cc2cc(Cl)c(N)c3ncccc23)c(N)n1`, 1.12 µM.
On to `COc1cccc(C(=O)NCCc2cccc(Cl)c2)c1OCc1ccccc1`, for which the XC50 came out at 1.26 µM.
For `Cc1cc2nc(N/C(N)=N/C(=O)NC3CCCCC3)nc(C)c2cc1C` the value was 0.754 µM.
The result for `CCOC(=O)c1cn(CC)c2cc(OCc3ccccc3)ccc2c1=O` reads 0.947 µM; that for `CCCN(CCC)CCOc1ccc(C(O)(C#CC(O)(c2ccc(OCCN(CCC)CCC)cc2)c2cccc(Cl)c2)c2cccc(Cl)c2)cc1` (configuration not stated), 0.79 µM.
For `CCCN1CCC=C(c2cccc(Nc3nccc(Nc4cc(OC)ccc4C)n3)c2)C1` the value was 1.04 µM; for `O=C(O)C[C@H](NC(=O)[C@@H]1CCCN1C(=O)c1cccc(-c2ccc(Cl)c(Cl)c2)c1)C(=O)O`, 0.863 µM; for `FC(F)(F)c1cccc(N2CCC(CN3CCC(c4c[nH]c5ccccc45)CC3)CC2)n1`, 0.98 µM.
`COc1ccc(-c2cccc(NC(=O)c3ccc(Cl)cc3)c2)cc1CN(C)CCN(C)C` had an XC50 of 0.776 µM.
The result for `CCOc1cc2ncnc(Nc3ccc(OCc4c(F)cccc4F)c(OC)c3)c2cc1OCC` reads 0.821 µM; that for `CC(=O)Nc1ccc2[nH]cc(C3CCN(CCC4CCN(C(=O)/C=C/c5ccc(Cl)c(Cl)c5)CC4)CC3)c2c1`, 0.776 µM.
With `O=C(NC1CCN(c2ccnc3cc(Cl)ccc23)C1)c1ccccc1F` (configuration not stated), the XC50 stood at 0.971 µM.
For `Oc1c(C(Nc2ccccn2)c2ccc(Cl)cc2Cl)ccc2cccnc12` (configuration not stated) the value was 0.892 µM.
In the case of `COC(=O)Cn1c(C2CCN(CC3CCN(C(=O)/C=C/c4ccc(Cl)c(Cl)c4)CC3)CC2)nc2ccccc21`, the XC50 was 1.2 µM.
As for `CC(C)NCc1cccc(-c2ccc(NC(=O)c3ccc(F)cc3)cc2)c1`, the XC50 stood at 0.85 µM.
In turn, `c1cc(CN2CCCCC2)cc(OCCCNc2ccnc3ccccc23)c1` yielded an XC50 of 0.433 µM.
For `CCCCN(CCCC)CCCCCCNc1c2ccccc2nc2ccccc12` the value was 0.776 µM; for `N#Cc1ccc(/C=C/C(=O)NCCCCCN2CCCN(C(=O)Nc3ccc(Cl)c(C(F)(F)F)c3)CC2)cc1`, 0.437 µM.
For `Cc1nccn1CCNC(=O)CN1CCC2(CCC1=O)CC(=O)c1ccccc1O2` (configuration not stated) the value was 0.802 µM; for `Nc1nc(N)c2c(Oc3ccc(Cl)c(Cl)c3)cccc2n1`, 0.871 µM.
As to `Cc1cccc2nc(-c3cccc(-c4cccc(NC(=O)CNc5ccc(C(N)=O)cc5)c4)c3)[nH]c12`, the XC50 turned out to be 0.282 µM.
For `O=C(NCCc1ccccc1)N(Cc1ccccc1-c1ccc(CNC2CCCC2)cc1)C1CCN(Cc2ccccc2)CC1`, the XC50 came to 1.13 µM.
The result for `Cc1cccc(Nc2nc(N)c3ccccc3n2)c1` reads 0.574 µM; that for `Cc1ccc(CCNCC(O)c2cccc(C(F)(F)F)c2)cc1` (configuration not stated), 0.868 µM; that for `COc1ccc2nc(C)cc(Nc3ccc(Oc4ccc(Br)c5ccccc45)c(Cl)c3)c2c1`, 0.277 µM.
Take `O=C(/C=C/c1ccc(Cl)c(Cl)c1)N1CCC(CN2C3CCC2CC(c2c[nH]c4ccccc24)C3)CC1` (configuration not stated): the XC50 came to 0.737 µM.
In turn, `O=C(Nc1cccc(-c2cccc(-c3nc4cc(F)ccc4[nH]3)c2)c1)Nc1ccc(F)c(F)c1F` returned an XC50 of 0.0891 µM.
`COc1ccc(COc2cc(NCCCN)nc3ccccc23)cc1`: the XC50 amounted to 1.28 µM.
The result for `CC(C)(C)OC(=O)NCc1ccc(Nc2nnc(-c3ccc(OCC(=O)NCc4ccc(C(C)(C)C)cc4)c([N+](=O)[O-])c3)o2)cc1` reads 0.8 µM.
The result for `Cc1c[nH]c(CCNC(=O)c2cc(-c3ccc(Cl)cc3)cs2)n1` reads 0.242 µM.
The result for `O=C(NCCN1CCN(S(=O)(=O)c2ccc(OC3CCNCC3)c(Br)c2)CC1)c1ccc(Cl)c(Cl)c1` reads 0.891 µM; that for `Oc1ccc2c(CNC3CCCCC3)c(O)ccc2c1CNC1CCCCC1`, 0.0435 µM.
As for `CN1CCN(CC2(Nc3nccc(NCc4ccc(Cl)cc4Cl)n3)CCCCC2)CC1`, the XC50 amounted to 0.593 µM.
The result for `O=C(Nc1cccc(OC2CCN(Cc3ccccc3)CC2)c1)Nc1cccc([N+](=O)[O-])c1` reads 0.783 µM; that for `O=C(/C=C/c1ccc(Cl)c(Cl)c1)N1CCC(CN2CCC(c3c[nH]c4cnccc34)CC2)CC1`, 0.219 µM.
For `COc1ccc2nccc([C@@H](O)CN3CCC(NCc4nc5ccccc5s4)CC3)c2c1` the value was 0.927 µM; for `COc1ccc(NC(=O)Nc2ccc(-c3ccncc3)c(C(F)(F)F)c2)cc1N1CCN(C)CC1`, 0.763 µM; for `COc1cc(C2C(Oc3ccccc3)C(=O)N2Cc2ccc(F)cc2)cc(OC)c1OC` (configuration not stated), 0.956 µM.
Turning to `Cc1ccc(O)c(-c2cc(C(=O)Nc3ccc(S(=O)(=O)N4CCCCC4)cc3)[nH]n2)c1`, the XC50 stood at 0.805 µM.
The result for `CCNc1cc(C(=O)N[C@@H](Cc2ccccc2)[C@H](O)CNCc2cccc(-n3ccnc3)c2)cc(N2CCCC2=O)c1` reads 0.635 µM.
The result for `CN1C(=O)C(=NN=C(S)N2CCOCC2)c2ccccc21` reads 0.901 µM.
The result for `CCCCCc1cc(O)c2c(c1)OC(C)(C)CC2C1=CCN(Cc2cccnc2)CC1` (configuration not stated) reads 0.991 µM.
In the case of `Nc1nc(O)c2c(n1)CCc1c(Br)cccc1-2`, the XC50 amounted to 0.697 µM.
